Literature values in US20240397942A1, “METHOD FOR PRODUCING REPELLENT OR ATTRACTANT FOR ORGANISMS, REPELLENT OR ATTRACTANT FOR ORGANISMS, AND METHOD FOR REPELLING OR ATTRACTING ORGANISMS” (Sony Group Corporation, priority 2021, published 2024).

Tests used:
Conditions in all cases: in vivo
fruit flies = tested on: fruit flies
Asian tiger mosquitoes = tested on: Asian tiger mosquitoes
organisms = tested on: organisms
sirex woodwasps = tested on: sirex woodwasps
[1] = tested on: house dust mites (indoor mites)
stink bugs = tested on: stink bugs
[2] = tested on: plant hoppers (rice pests)
giant assassin bugs = tested on: giant assassin bugs
spider mites = tested on: spider mites
green tea leafhoppers = tested on: green tea leafhoppers
[3] = tested on: whiteflies (infection vector of tomato yellowing gangrene virus)
malaria mosquitoes = tested on: malaria mosquitoes
peach-potato aphids = tested on: peach-potato aphids
flour beetles = tested on: flour beetles
Mexican bean beetles = tested on: Mexican bean beetles

Compound: O=Cc1ccccc1 [benzaldehyde]
- attractive (attractant) effect on fruit flies (fruit flies): attractive effect

Compound: CC(=O)O [acetic acid]
- attractant effect on Asian tiger mosquitoes (Asian tiger mosquitoes): attractant effect

Compound: C=Cc1ccccc1 [styrene]
- repellent or attractant effect on organisms (organisms): no repellent or attractant effect

Compound: CC(=O)CC(C)=O [acetylacetone]
- repellent effect on sirex woodwasps (sirex woodwasps): repellent effect

Compound: CCCCCCCC=O [Example 1-octanal, 1-octanal]
- attractant effect on house dust mites (indoor mites) [1]: attractant effect

Compound: CC(=O)c1ccccc1 [acetophenone]
- attractive effect on stink bugs (stink bugs): attractive effect
- repellent effect on sirex woodwasps (sirex woodwasps): repellent effect
- attractive effect on plant hoppers (rice pests) [2]: attractive effect
- repellent effect on giant assassin bugs (giant assassin bugs): repellent effect

Compound: CCCCCCCCCCCCCCCC [hexadecane]
- repellent effect on spider mites (spider mites): repellent effect

Compound: hexadecene
- repellent effect on green tea leafhoppers (green tea leafhoppers): repellent effect

Compound: CCCCC(CC)CO (stereo not shown) [2-ethyl-1-hexanol]
- attractant effect on whiteflies [3]: attractant effect

Compound: CCCCCCCCCC=O [Example 1-decanal, 1-decanal]
- attractant effect on house dust mites (indoor mites) [1]: attractant effect

Compound: CC=O [acetaldehyde]
- attractive (attractant) effect on fruit flies (fruit flies): attractant effect

Compound: CCCCCCCCCCCCCC [tetradodecane]
- repellent effect on malaria mosquitoes (malaria mosquitoes): repellent effect

Compound: CCCCCC=O [Example 1-hexanal, 1-hexanal]
- attractant effect on peach-potato aphids (peach-potato aphids): attractant effect

Compound: C=CCCCCCCCCCCCC [1-tetradecene]
- repellent effect on flour beetles (flour beetles): repellent effect
- repellent effect on Mexican bean beetles (Mexican bean beetles): repellent effect

Compound: xylene
- repellent effect on whiteflies [3]: repellent effect
